In article PMC9680484, “Synthesis, Biophysical Interaction of DNA/BSA, Equilibrium and Stopped-Flow Kinetic Studies, and Biological Evaluation of bis(2-Picolyl)amine-Based Nickel(II) Complex” (Biomimetics, 2022):
Values after ≈ are worked out from the molar mass of the structure shown. Values joined by “and” are separate entries in the source; they are usually repeats but may differ in a detail not shown here. Identical values can stand only once.

Key:
[1] = molecular target: T1, BSA (Bos taurus, UniProt P02769); test: BSA fluorescence quenching titration (Stern-Volmer / Scatchard); assay type: binding, bovine; details: for Kbin: BSA binding constant from Scatchard equation; for n (number of binding sites): Scatchard plot log (I0 − I)/I vs. log [Q]; for KSV: Stern-Volmer constant; for Kq: quenching constant, Kq = Ksv/τ0, τ0 = 10 ns
Experimental: The excitation and emission wavelengths of BSA at 280 nm were monitored in protein binding studies using BSA ([…]) solution prepared in Tris-HCl buffer (pH 7.5), and the solution was stored in a dark place at 4 °C.
Interactions between the most common blood protein, serum albumin, and complexes have sparked a lot of interest recently because of their structural similarity to human serum albumin. To better understand the mechanism of interaction between BPA and its nickel(II) complex NiBPA with BSA, fluorescence quenching studies were carried out. BSA’s fluorescence is due to intrinsic protein characteristics, such as the presence of tryptophan and tyrosine residues. Variations in the emission spectra caused by protein conformational changes, subunit interaction, substrate binding, or denaturation are largely attributed to the tryptophan residue. As a result, BSA fluorescence behavior can provide valuable insight into protein structure, dynamics, and folding. Fluorescence titration experiments were performed at room temperature with BSA and different concentrations of BPA and NiBPA in the range 200–600 nm (λex. 280 nm). A slight red shift (40 percent, BPA; 65 percent, NiBPA; Figure 3) reduced the intensity of BSA fluorescence at 343 nm. The presence of the protein’s active site in a hydrophobic environment causes the redshift. […] The quenching mechanism can be set to either static or dynamic operation. Dynamic quenching occurs when the fluorophore and the quencher come into contact during the excited state’s transient existence, whereas static quenching is caused by the formation of a complex between the quencher and the fluorophore in the ground state. BSA (fluorophore) has a UV-vis absorption spectrum that can be used to investigate the type of quenching quickly and easily. […] The binding constants for BPA and NiBPA were calculated using Equation (1) and found to be 0.4 × 10^4 M^−1 and 0.82 × 10^4 M^−1, respectively (Table 1). […] Furthermore, the findings are in line with previous research on related compounds.
The Kq value is much higher than the 2 × 10^10 M^−1s^−1 maximum scatters collision quenching constant of quenchers with BSA (Kq = Ksv/τ0), where KSV is the Stern–Volmer constant and τ0 is the average lifetime of the BSA in the absence of the quencher (τ0 = 10 ns). This supports the idea of a static quenching mechanism. […] It is second order in [Q] and thus leads to upward curvy plots of I0/I versus [Q] at higher [Q].
The quenching constant (Kq) was calculated using the Stern–Volmer and Scatchard equation and plotted as I0/I vs. [Q] to better understand the quenching process (Figure 3). In addition, Scatchard Equation (2) was used to calculate the equilibrium binding constant:log[(I0 − I)/I] = log Kbin + n log [Q](2) where Kbin is the compound’s BSA binding constant and n is the number of binding sites. From the log (I0 − I)/I vs. log [Q] plot (Figure 5), the binding constant (Kbin) and the number of binding sites (n) have been calculated (Table 1). The estimated value of n (∼1) for BPA and NiBPA strongly supported the existence of a single binding site in BSA.

[2] = molecular target: T1, BSA; test: BSA UV-vis absorption titration (Benesi-Hildebrand binding constant); parameters: species or system bovine
Experimental: Interactions between the most common blood protein, serum albumin, and complexes have sparked a lot of interest recently because of their structural similarity to human serum albumin. To better understand the mechanism of interaction between BPA and its nickel(II) complex NiBPA with BSA, fluorescence quenching studies were carried out. BSA’s fluorescence is due to intrinsic protein characteristics, such as the presence of tryptophan and tyrosine residues. Variations in the emission spectra caused by protein conformational changes, subunit interaction, substrate binding, or denaturation are largely attributed to the tryptophan residue. As a result, BSA fluorescence behavior can provide valuable insight into protein structure, dynamics, and folding. Fluorescence titration experiments were performed at room temperature with BSA and different concentrations of BPA and NiBPA in the range 200–600 nm (λex. 280 nm). A slight red shift (40 percent, BPA; 65 percent, NiBPA; Figure 3) reduced the intensity of BSA fluorescence at 343 nm. The presence of the protein’s active site in a hydrophobic environment causes the redshift. […] The quenching mechanism can be set to either static or dynamic operation. […] The binding constants for BPA and NiBPA were calculated using Equation (1) and found to be 0.4 × 10^4 M^−1 and 0.82 × 10^4 M^−1, respectively (Table 1). […]

[3] = test system: ct-DNA; test: ct-DNA electronic absorption titration; assay type: binding; details: phosphate buffer pH 7.2
Experimental: Electronic absorption measurements were performed with a constant concentration of ctDNA and increasing concentrations of BPA and NiBPA (Na-phosphate buffer solution, pH 7.2). […] Intrinsic fluorescence was measured with the ct-DNA solution at the excitation wavelength (ex, 330), and emission spectra were recorded at 550–700 nm after aliquot addition of BPA and NiBPA.
Absorption titration information was depicted in Figure 6 to understand the mode of interaction of complexes with ct-DNA. Increased addition of a solution of BPA to a solution of ct-DNA causes hyperchromic for the band at 264 nm with a blue shift of 5 nm (259 nm), as shown in the absorption titration spectrum (Figure 6). The band at 278 nm, on the other hand, was hypochromic with a small blue shift of 2 nm (276 nm). The presence of […] in the medium was indicated by the isosbestic point in the titration curve at 274 nm. […] The hydrogen bonds formed with the –OH and SH groups of BPA and NiBPA are caused by the presence of many accessible hydrogen binding sites in the DNA major and minor grooves. The binding constants for BPA (0.16 × 10^5 M^−1) and NiBPA (0.52 × 10^5 M^−1) are similar to those of well-known groove binding rather than classical intercalation, implying that NiBPA interacts with ct-DNA much more strongly than BPA under investigation.

[4] = molecular target: T1, BSA; test: Stopped-flow kinetics of BSA binding; parameters: species or system bovine; details: for ΔG1: ΔGbind = RT·ln(Kd); for K2 (2nd step): irreversible step for BPA
Experimental: (§1) The kinetics of protein and DNA binding was measured using an Applied KinetAsyst SF-61DX2 stopped-flow instrument. At 25 °C, equal volumes of compounds against protein and DNA solutions were rapidly mixed in the stopped-flow instrument. The binding reactions were studied using a 10-fold excess of the ligand BPA and NiBPA under pseudo-first-order conditions. For each experimental condition, all recorded rate constants were taken into account, from which the mean values of at least three independent kinetic runs were calculated.
(§2) Because many medicines with lower cellular toxicity have a slow DNA dissociation rate, several factors, such as the strength of binding and the drug’s affinity for DNA, as well as the kinetic stability of DNA-drug adducts, may contribute to antitumor effectiveness. The stopped-flow technique was used to study in-vitro protein/DNA binding to BPA and propose a mechanism in order to obtain such information. The kinetic traces were recorded at 265 nm within 100 s (BPA) and 5 s (NiBPA), respectively, to capture the interaction process with BSA. […] In the case of ct-DNA interaction, the kinetic traces were recorded at 290 nm, and both BPA and NiBPA followed a similar pattern since kinetic traces for BPA and NiBPA were collected within 100 s, covering the entire interaction process. […] Over the concentration range of BPA and NiBPA, the study of kinetic traces performed under pseudo-first-order conditions may be fitted to two kinetic phases (Figure 7) evaluated using the following Equation (3):(3) A=a1e^−kobs1t1+a2e^−kobs2t2+A0
(§3) The interaction process involves at least two steps, and the stopped-flow records the two kinetic phases as a fast binding (rate constant kobs1) followed by a slow first-order isomerization process (rate constant kobs2). […] Both kon and koff were used to calculate the equilibrium association constants Kaff [kon/koff M^−1] and the equilibrium dissociation constants Kd [koff/kon M].
The difference between the free energy, G, of BSA molecules alone in the solution and when bound together is related to the equilibrium dissociation constant, Kd1. Equation (4) gives the binding free energy change Gbind. (4) ΔGbind=RT·ln(Kd)

[5] = test system: ct-DNA; test: Stopped-flow kinetics of ct-DNA binding; details: for Ka1 (k1/k−1) / Kd: 1st step; for Ka1 (k1/k−1) / Kd / K2 (2nd step) / Ka2 (k2/k−2) / k−2 / k1 (1st step, second-order association constant) / k−1 (1st step, first-order dissociation constant): 25 °C; for Kd: read-out: Kd1 (k−1/k1); for K2 (2nd step) / Ka2 (k2/k−2) / k−2: 2nd step
Experimental: as §1, §2
as §3, with “M]. […]” for “M].”

[6] = test system: human liver cancer (HepG2) cell lines; test: MTT cytotoxicity assay, liver cancer cells; assay type: cell-based
Experimental: Methyl thiazolyl tetrazolium (MTT) colorimetry [47] was used to assess the cytotoxicity of BPA and one for human liver cancer (HepG2) cell lines. MTT can be converted into formazan by living cells with an active metabolism, but this ability is lost in dying cells. Therefore, in this study, the MTT assay was used to determine how many viable cells there were. Before the investigated compounds were added, cells were cultured in 96-well flat-bottomed microtiter plates at a density of 1 × 10^4 cells/well (100 l/well) for 70 to 80 percent confluent cultures, and the cultures were then incubated at 37 °C and 5 percent CO2 for 24 h. The compounds were used in a range of concentrations (31.2, 62.5, 125.0, 250.0, 500.0, and 1000.0 g/mL), and the cells were cultured for 24 h. Then, 10 µl of the 12 mM MTT stock solution (5 mg/mL MTT in sterile PBS) was added to each well at the conclusion of the incubation period. After that, the plate was incubated at 37 °C for 4 h. […] On an ELISA reader, the absorbance at 570 nm was read (StatFax-2100, Awareness Technology, Inc., USA). The percentage of cells inhibited was calculated using: % CellInhibition=100−T−T0/C−T0 where T is the optical density of the test sample, To is the optical density at time zero, and C is the optical density of the control.

[7] = MTT cytotoxicity assay, normal cells; assay type: cell-based
[8] = test system: S. aureus; test: Antibacterial MIC/MBC, S. aureus; assay type: cell-based; details: Gram-positive
Experimental: (§4) Several studies have shown that organic compound coordination with a metallic element results in significant changes in the biological activity of both the organic ligand and the metal. As a result, BPA and its nickel complex NiBPA were tested in vitro for antibacterial activity against Gram-positive (S. aureus and S epidermidis) and Gram-negative (P. mirabilis and E. coli) bacteria. Figure 10 depicts the antibacterial function of BPA and NiBPA as the diameter of the growth-inhibition region in millimeters. […] The MBC is identified by determining the lowest concentration of antibacterial agents that reduces the viability of the initial bacterial inoculum by 99.9%. The MIC or MBC strain was chosen based on the value agreed upon on two or more occasions. The antibiotic tobramycin (TOB) was used to control the situation. The inhibition zone, as well as the MIC and MBC data, leads to the following conclusions. […] This is explained by the metal ion’s polarity and cationic charge, as NiBPA has a cationic property with two positive charges. […] The interaction between Gram-negative bacteria and NiBPA was stronger than that of Gram-positive bacteria due to the higher negative charge on the cell surface, despite the presence of an outer membrane in Gram-negative bacteria (see Figure 11).

[9] = test system: E. faecalis; test: Antibacterial MIC/MBC, E. faecalis; assay type: cell-based; parameters: MIC: unit not given here; details: Gram-positive
[10] = test system: P. aeruginosa; test: Antibacterial MIC/MBC, P. aeruginosa; assay type: cell-based; parameters: MIC: unit not given here; details: Gram-negative
[11] = test system: E. coli; test: Antibacterial MIC/MBC, E. coli; assay type: cell-based; details: Gram-negative
Experimental: as §4

[12] = BSA fluorescence, λex 280 nm, room temperature

SMILES | Kbin [1] | n (number of binding sites) [1] | KSV [1] | KSV [1, 12] | Kq [1] | reduction of BSA fluorescence intensity at 343 nm ([1]; λex 280 nm, room temperature) | binding constant (ct-DNA) [3] | Ka1 (k1/k−1) ([4]; BSA, 1st step, 25 °C) | ΔG1 ([4]; BSA, 1st step) | K2 (2nd step) ([4]; BSA, 2nd step, 25 °C) | k−1 (1st step, first-order dissociation constant) ([4]; BSA, 25 °C) | Ka1 (k1/k−1) [5] | Kd [5] | K2 (2nd step) [5] | Ka2 (k2/k−2) [5] | k−2 [5] | k1 (1st step, second-order association constant) [5] | k−1 (1st step, first-order dissociation constant) [5] | Ka (overall binding) [5] | MBC [8] | other results
O.[Cl][Ni][Cl].c1ccc(CNCc2ccccn2)nc1 [NiBPA, [(BPA)NiCl2(H2O)]] | 0.90 10^4 M^−1 | 1.3 | 7000 M⁻¹ | 0.70 10^4 M^−1 | 0.70 10^12 M^−1s^−1 | 65% | 52000 M⁻¹ | 7.3 M⁻¹ | -1.22 kcal/mol | 2.0 ± 0.2 M⁻¹ s⁻¹ | 7.3 ± 0.3 s⁻¹ | 53.6 M⁻¹ | 19 mM | 0.23 ± 0.01 M⁻¹ s⁻¹ | 39 M⁻¹ and 39.0 M⁻¹ | 5.9 ± 0.5 10^−3s^−1 | 19.3 ± 2.3 M⁻¹ s⁻¹ | 0.36 ± 0.1 s⁻¹ | 2077 M⁻¹ | 76.0 µg/mL | binding constant (BSA) ([2]; BSA UV absorption): 8200 M⁻¹; ΔG2 ([4]; BSA, 2nd step): −8.3 kJmol^−1; k−2 ([4]; BSA, 2nd step, 25 °C): 620 ± 6 10^−3s^−1; Ka2 ([4]; BSA, 2nd step, 25 °C, listed as 1): 3.2 M⁻¹; k1 (1st step, second-order association constant) ([4]; BSA, 25 °C): 53.6 ± 9.0 M⁻¹ s⁻¹; Ka (overall binding) ([4]; BSA, overall): 30.3 M⁻¹; ΔG (overall reaction) ([4]; BSA, overall): −8.4 kJmol^−1; Kd ([4]; BSA, overall, read-out: Kd (overall binding)): 34 mM; Kd ([4]; BSA, overall, read-out: Kd (overall reaction)): 32.3 mM; IC50 ([6]; HepG2, MTT, 24 h): 75.0 ± 0.5 µg/mL; IC50 ([7]; normal liver (Wi38) cells, MTT, 24 h): 120.0 ± 0.5 µg/mL; MBC [9]: 80.0 µg/mL; MIC [9]: 43.0; MBC [10]: 70.0 µg/mL; MIC [10]: 35.0; MBC [11]: 63.0 µg/mL
c1ccc(CNCc2ccccn2)nc1 [BPA, bis(2-picolyl)amine] | 0.25 10^4 M^−1 | 1.0 | 2100 M⁻¹ | 0.21 10^4 M^−1 | 0.21 10^12 M^−1s^−1 | 40% | 16000 M⁻¹ | 73.5 M⁻¹ | -2.53 kcal/mol | Irreversible step with K2 = 0.82 ± 0.08 M^−1s^−1 | 0.17 ± 0.0 s⁻¹ | 40.0 M⁻¹ and 40 M⁻¹ | 25.6 mM | 0.29 ± 0.01 M⁻¹ s⁻¹ | 47.5 M⁻¹ | 6.1 ± 0.3 10^−3s^−1 | 27.0 ± 2.5 M⁻¹ s⁻¹ | 0.69 ± 0.1 s⁻¹ | 1899 M⁻¹ | 0 µg/mL | Kd [2]: 0.25 mM; Kd ([4]; BSA, 1st step, 25 °C, read-out: Kd1 (k−1/k1)): 13.6 mM; K2 (irreversible 2nd step) ([4]; BSA, 2nd step): 0.82 M⁻¹; k−2 ([4]; BSA, 2nd step, irreversibility): ≈ 0; kon ([4]; bovine, read-out: k1 (1st step, second-order association constant)): 12.5 ± 1.1 M⁻¹ s⁻¹; IC50 ([6]; Homo sapiens, HepG2, 24 h): 100 ± 1 µg/mL (≈ 502 µM); IC50 ([7]; Homo sapiens, WI-38, 24 h): 237.2 ± 1.3 µg/mL (≈ 1190 µM); MBC [9]: 0 µg/mL; MBC [10]: 0 µg/mL; MBC [11]: 0 µg/mL
